Results on 21 compounds are retold here after the supplement of paper PMC11281043.

Holding throughout (details): exposure: 6-8 hpf to 5 dpf, scored at 6 dpf
Assay [1] concerns Danio rerio embryo/larva. Description: max % larvae dead across tested concentrations; max tested concentration (log10 uM): 2; higher = more toxic; extreme values may be limits of the assay.
The subject of assay [2] is Danio rerio embryo/larva. Nature of the assay: max % larvae unhatched across tested concentrations; max tested concentration (log10 uM): 2; higher = more toxic.
The test system of assay [3] is Danio rerio embryo/larva. Description: max % larvae with any abnormality across tested concentrations; max tested concentration (log10 uM): 2; higher = more toxic; extreme values may be limits of the assay.
For assay [4], the system named is Danio rerio embryo/larva. Description: max % larvae with pigmentation defects across tested concentrations; higher = more toxic.
The subject of assay [5] is Danio rerio embryo/larva. Nature of the assay: max % larvae with abnormal position across tested concentrations; higher = more toxic; extreme values may be limits of the assay.
Assay [6] deals with Danio rerio embryo/larva. Nature of the assay: max % larvae with craniofacial defects across tested concentrations; higher = more toxic; extreme values may be limits of the assay.
The test system of assay [7] is Danio rerio embryo/larva. Nature of the assay: max % larvae with tail defects across tested concentrations; higher = more toxic; extreme values may be limits of the assay.
Assay [8] relates to Danio rerio embryo/larva. Nature of the assay: max % larvae with edema across tested concentrations; higher = more toxic; extreme values may be limits of the assay.
Assay [9] deals with Danio rerio embryo/larva. Description: max % larvae with spinal defects across tested concentrations; higher = more toxic; extreme values may be limits of the assay.
In assay [10] the test system is Danio rerio embryo/larva. Nature of the assay: max % larvae with uninflated swim bladder across tested concentrations; higher = more toxic; extreme values may be limits of the assay.
Assay [11] relates to Danio rerio embryo/larva. Nature of the assay: max % larvae generally abnormal across tested concentrations; higher = more toxic; extreme values may be limits of the assay.
Assay [12] concerns Danio rerio embryo/larva. Nature of the assay: max % larvae with blood pooling across tested concentrations; higher = more toxic; extreme values may be limits of the assay.

Molecules are shown by their SMILES.

As to `CN(C(=O)C(F)(F)C(F)(F)C(F)(F)F)[Si](C)(C)C` [N-Methyl-N-trimethylsilylheptafluorobutyramide], in the assay with Danio rerio embryo/larva [1], the “max % larvae dead across tested concentrations” value is 0%. The “max % larvae unhatched across tested concentrations” value in the assay with Danio rerio embryo/larva [2] stood at 0%. The compound also gave a max % larvae with Danio rerio embryo/larva [3] of 0%.
Regarding `O=C(O)C(F)(F)C(F)(F)C(F)(F)C(F)(F)C(=O)O` [Perfluorohexanedioic acid], the “max % larvae dead across tested concentrations” value in the assay with Danio rerio embryo/larva [1] was 0%. The “max % larvae unhatched across tested concentrations” value in the assay with Danio rerio embryo/larva [2] stood at 0%. In the assay on Danio rerio embryo/larva [3], the max % larvae worked out at 0%.
Consider `O=C(O)C(F)(F)C(F)(F)C(=O)O` [Perfluorobutanedioic acid], for which the “max % larvae dead across tested concentrations” value in the assay with Danio rerio embryo/larva [1] was 16.7%. In addition, in the assay with Danio rerio embryo/larva [2], the “max % larvae unhatched across tested concentrations” value was found to be 0%. The max % larvae in the assay on Danio rerio embryo/larva [3] was found to be 16.7%.
Consider `NC(=O)C(F)(F)C(F)(F)C(F)(F)C(F)F` [Perfluoropentanamide], for which the “max % larvae dead across tested concentrations” value in the assay with Danio rerio embryo/larva [1] worked out at 0%. For the same compound, in the assay on Danio rerio embryo/larva [2], the “max % larvae unhatched across tested concentrations” value was 0%. The max % larvae in the assay with Danio rerio embryo/larva [3] was found to be 0%.
Regarding `OCC(F)(F)C(F)(F)C(F)(F)C(F)(F)C(F)(F)C(F)F` [1H,1H,7H-Dodecafluoro-1-heptanol], the “max % larvae dead across tested concentrations” value with Danio rerio embryo/larva [1] came to 0%. The “max % larvae unhatched across tested concentrations” value with Danio rerio embryo/larva [2] came out at 0%. In the assay with Danio rerio embryo/larva [3], the max % larvae turned out to be 8.33%.
As to `O=C(O)C(F)(F)C(F)(F)C(F)(F)C(F)(F)C(F)(F)C(F)(F)C(F)(F)F` [Sodium perfluorooctanoate], in the assay on Danio rerio embryo/larva [1], the “max % larvae dead across tested concentrations” value was determined as 0%. In addition, the “max % larvae unhatched across tested concentrations” value with Danio rerio embryo/larva [2] was 0%. This compound also yielded a max % larvae in the assay with Danio rerio embryo/larva [3] of 0%.
`OCC(F)(F)C(F)(F)C(F)(F)CO` [Hexafluoroamylene glycol]: the “max % larvae dead across tested concentrations” value in the assay with Danio rerio embryo/larva [1] amounted to 0%. Further, the “max % larvae unhatched across tested concentrations” value with Danio rerio embryo/larva [2] was 0%. In the assay with Danio rerio embryo/larva [3], this compound showed a max % larvae of 0%.
Consider `FC(F)(F)C(F)(F)C(F)(F)CI` [Heptafluorobutyl iodide], for which the “max % larvae dead across tested concentrations” value in the assay with Danio rerio embryo/larva [1] stood at 0%. The “max % larvae unhatched across tested concentrations” value in the assay on Danio rerio embryo/larva [2] was found to be 0%. This compound gave a max % larvae in the assay with Danio rerio embryo/larva [3] of 0%.
Turning to `O=C(O)C(F)(F)C(F)(F)C(F)(F)C(F)(F)C(F)(F)C(F)(F)C(F)(F)C(F)F` [9H-Perfluorononanoic acid], the “max % larvae dead across tested concentrations” value with Danio rerio embryo/larva [1] amounted to 0%. For the same compound, the “max % larvae unhatched across tested concentrations” value in the assay on Danio rerio embryo/larva [2] amounted to 0%. Also, the max % larvae in the assay with Danio rerio embryo/larva [3] was found to be 18.8%.
In the case of `NC(=O)C(F)(F)C(F)(F)F` [Pentafluoropropionamide], in the assay with Danio rerio embryo/larva [1], the “max % larvae dead across tested concentrations” value amounted to 0%. Also, the “max % larvae unhatched across tested concentrations” value in the assay on Danio rerio embryo/larva [2] stood at 0%. The max % larvae in the assay on Danio rerio embryo/larva [3] stood at 0%.
On to `O=S(=O)(O)C(F)(F)C(F)(F)OC(F)(F)C(F)(F)F` [Perfluoro-2-ethoxyethanesulfonic acid], for which, in the assay on Danio rerio embryo/larva [1], the “max % larvae dead across tested concentrations” value is 0%. For the same compound, the “max % larvae unhatched across tested concentrations” value in the assay with Danio rerio embryo/larva [2] was 0%. In the assay with Danio rerio embryo/larva [3], this compound displayed a max % larvae of 16.7%.
As to `FC(F)(F)C(F)(F)C(F)(F)C(F)(F)C(F)(F)C(F)(F)I` [Perfluoro-1-iodohexane], the “max % larvae dead across tested concentrations” value in the assay on Danio rerio embryo/larva [1] was 0%. Moreover, the “max % larvae unhatched across tested concentrations” value in the assay with Danio rerio embryo/larva [2] was 0%. In the assay on Danio rerio embryo/larva [3], this compound registered a max % larvae of 0%.
Turning to `OCC(F)(F)OC(F)(F)C(F)(F)OC(F)(F)CO` [1H,1H,8H,8H-Perfluoro-3,6-dioxaoctane-1,8-diol], the “max % larvae dead across tested concentrations” value with Danio rerio embryo/larva [1] amounted to 0%. Also, the “max % larvae unhatched across tested concentrations” value with Danio rerio embryo/larva [2] came out at 0%. This compound also registered a max % larvae in the assay with Danio rerio embryo/larva [3] of 0%.
As for `FC(F)(F)C(F)(F)CNCC(F)(F)C(F)(F)F` [Bis(1H,1H-perfluoropropyl)amine], in the assay on Danio rerio embryo/larva [1], the “max % larvae dead across tested concentrations” value amounted to 0%. For the same compound, in the assay on Danio rerio embryo/larva [2], the “max % larvae unhatched across tested concentrations” value is 0%. The same compound had a max % larvae in the assay on Danio rerio embryo/larva [3] of 16.7%.
With `C=C(C)C(=O)OCC(F)(F)C(F)(F)C(F)(F)C(F)F` [1H,1H,5H-Perfluoropentyl methacrylate] (max tested concentration (log10 uM): 2), the max % larvae in the assay on Danio rerio embryo/larva [4] amounted to 0%; in the assay on Danio rerio embryo/larva [5], 0%; in the assay on Danio rerio embryo/larva [6], 16.7%; in the assay with Danio rerio embryo/larva [7] it was 16.7%; in the assay on Danio rerio embryo/larva [8], 25%; in the assay on Danio rerio embryo/larva [9], 4.17%. Also, the max % larvae in the assay on Danio rerio embryo/larva [10] amounted to 33.3%; in the assay with Danio rerio embryo/larva [12], 0%. Moreover, the “max % larvae generally abnormal across tested concentrations” value in the assay with Danio rerio embryo/larva [11] came out at 25%.
Regarding `O=C(CC(=O)C(F)(F)F)C(F)(F)F` [1,1,1,5,5,5-Hexafluoro-2,4-pentanedione] (max tested concentration (log10 uM): 2), the max % larvae with Danio rerio embryo/larva [4], in the assay with Danio rerio embryo/larva [5], with Danio rerio embryo/larva [6], in the assay on Danio rerio embryo/larva [7], with Danio rerio embryo/larva [8] and in the assay on Danio rerio embryo/larva [9] was 0% throughout. Besides, the max % larvae in the assay on Danio rerio embryo/larva [10] and with Danio rerio embryo/larva [12] was 0% in each case. Further, in the assay on Danio rerio embryo/larva [11], the “max % larvae generally abnormal across tested concentrations” value was 0%.
Consider `O=C(O)C(F)(F)C(F)(F)C(F)(F)C(F)(F)C(F)(F)C(F)(F)C(F)F` [8H-Perfluorooctanoic acid] (max tested concentration (log10 uM): 2), for which the max % larvae was found to be 0% in the assay with Danio rerio embryo/larva [4]; 0% with Danio rerio embryo/larva [5]; 0% in the assay on Danio rerio embryo/larva [6]; 4.17% in the assay on Danio rerio embryo/larva [7]; 0% with Danio rerio embryo/larva [8]; 0% in the assay with Danio rerio embryo/larva [9]. Besides, the values for the max % larvae in the assay on Danio rerio embryo/larva [10] and with Danio rerio embryo/larva [12] were 16.7% and 0%, respectively. In the assay with Danio rerio embryo/larva [11], the “max % larvae generally abnormal across tested concentrations” value was 8.33%.
Consider `C[N+](C)(C)CCCNS(=O)(=O)C(F)(F)C(F)(F)C(F)(F)C(F)(F)C(F)(F)C(F)(F)C(F)(F)C(F)(F)F` (max tested concentration (log10 uM): 1.47712), for which the max % larvae was 0% with Danio rerio embryo/larva [4]; 12.5% in the assay with Danio rerio embryo/larva [5]; 50% with Danio rerio embryo/larva [6]; 0% with Danio rerio embryo/larva [7]; 50% in the assay with Danio rerio embryo/larva [8]; 0% with Danio rerio embryo/larva [9]. Moreover, the max % larvae in the assay on Danio rerio embryo/larva [10] was found to be 25%; in the assay with Danio rerio embryo/larva [12], 0%. Moreover, in the assay with Danio rerio embryo/larva [11], the “max % larvae generally abnormal across tested concentrations” value worked out at 50%.
For the compound `COC(=O)C(F)(F)C(F)(F)C(F)(F)C(F)(F)C(F)(F)F` [Methyl perfluorohexanoate] (max tested concentration (log10 uM): 2), the max % larvae in the assay on Danio rerio embryo/larva [4], in the assay with Danio rerio embryo/larva [5], in the assay on Danio rerio embryo/larva [6], with Danio rerio embryo/larva [7], in the assay on Danio rerio embryo/larva [8] and with Danio rerio embryo/larva [9] was 0% each time. The max % larvae in the assay with Danio rerio embryo/larva [10] and with Danio rerio embryo/larva [12] was 0% throughout. For the same compound, in the assay with Danio rerio embryo/larva [11], the “max % larvae generally abnormal across tested concentrations” value amounted to 0%.
Regarding `C=CC(=O)OCCC(F)(F)C(F)(F)C(F)(F)C(F)(F)C(F)(F)C(F)(F)C(F)(F)C(F)(F)F` [2-(Perfluorooctyl)ethyl acrylate] (max tested concentration (log10 uM): 2), the max % larvae in the assay with Danio rerio embryo/larva [4], in the assay with Danio rerio embryo/larva [5], in the assay on Danio rerio embryo/larva [6], in the assay with Danio rerio embryo/larva [7], with Danio rerio embryo/larva [8] and with Danio rerio embryo/larva [9] was 0% in each case. Further, the max % larvae in the assay on Danio rerio embryo/larva [10] and in the assay on Danio rerio embryo/larva [12] was 0% each time. In addition, in the assay on Danio rerio embryo/larva [11], the “max % larvae generally abnormal across tested concentrations” value amounted to 0%.
On to `NC(=O)C(F)(F)C(F)(F)F` [Pentafluoropropionamide] (max tested concentration (log10 uM): 2), for which the max % larvae in the assay with Danio rerio embryo/larva [4], in the assay with Danio rerio embryo/larva [5], with Danio rerio embryo/larva [6], with Danio rerio embryo/larva [7], with Danio rerio embryo/larva [8] and with Danio rerio embryo/larva [9] was 0% each time. Also, the max % larvae with Danio rerio embryo/larva [10] and in the assay on Danio rerio embryo/larva [12] was 0% throughout. Besides, the “max % larvae generally abnormal across tested concentrations” value in the assay on Danio rerio embryo/larva [11] amounted to 0%.
